# In patent US20260285817A1, “CRYSTALLINE FORMS OF A 1H-1,2,3-TRIAZOLE-4-CARBOXYLIC ACID COMPOUND” (CANTERO THERAPEUTICS, INC., priority 2023, published 2026):
# Entries after “also recorded” stand apart in the source; their conditions may differ. Where two headings read alike, the source gives them in different places.
# Tests used:
# [1] = Critical water activity study, competitive slurry in THF/H2O at rt, XRPD
# Description: Critical water activity (aw) study was performed for mono-sodium salt Form A (monohydrate), Form E (hemihydrate) and Form D (anhydrate) to investigate the form relationship. It was conducted via competitive slurry in THF/H2O with a series of aw (0~1) at rt. Specifically, ~10 mg staring material was suspended in 0.4 mL THF/H2O (aw of 0, 0.2, 0.4, 0.6, 0.8 and 1.0) at rt. After equilibrium for 2 hrs, collect the filtrates to the HPLC vials containing Form A and Form D with equivalent mass ratio. After stirring magnetically at rt for 1~2 days, collect the solids for XRPD analysis.
# [2] = Solubility in water at various temperatures; assay type: physicochemical; settings: for Final Form: XRPD
# Description: (§1) High Performance Liquid Chromatography (HPLC): HPLC of Agilent 1260 with DAD detector was employed to detect the purity and solubility, with the methods shown in Table 1.
# Solubility in Water at various Temperature: Solubility test was conducted for Form A in water at various temperatures. Specifically, about 3~5 mg Form A sample was added to 1 mL water. After stirring at 750 rpm at desired temperatures (25/35/50/60/70° C.) for 1~2 hrs, solids were isolated for XRPD to check the crystal form and the supernatants were collected for a HPLC analysis to detect the solubility.
# [3] = Solubility in 20% EtOH in water and 20% DMAc in water at room temperature; assay type: physicochemical; settings: organic solvent or mixture, 20~60 mins
# Description: as §1
# Solubility in Various Solvents: Solubility of Form A was also measured in 20% EtOH in water and 20% DMAc in water at room temperature (rt). Specifically, about 3 mg Form A sample was added to 0.6 mL solvent.
# [4] = 24-hr pH solubility and form stability in six pH buffers at 25° C.; assay type: physicochemical; settings: for solubility at 24 h: aqueous buffer
# Description: as §1
# After shaking at 100 rpm at 25° C. for 24 hrs, the suspensions were centrifuged. The solids were analyzed by XRPD for crystal form, and the filtrates of supernatants were analyzed by HPLC for solubility and by pH meter for pH value.
# [5] = Dynamic vapor sorption (DVS) hygroscopicity of Form A; assay type: physicochemical
# Description: In some embodiments, the crystalline form described herein is further characterized by a dynamic vapor sorption (DVS). In some embodiments, the DVS is recorded using a sample weight of a few milligrams (e.g., about 20 mg) on an ADVENTURE series DVS at 25° C. under nitrogen. In some embodiments, the sample is subjected to the cycle as follows: 1) ambient relative humidity (RH) to 90% RH at a rate of 10% RH and from 90% RH to 95% RH in a rate of 5% RH; 2) 95% RH to 90% RH at a rate of 5% RH and 90% RH to 0% RH at a rate of 10% RH; and 3) 0% RH to 90% RH at a rate of 10% RH and 90% RH to 95% RH in a rate of 5% RH.
# Dynamic Vapor Sorption (DVS): Dynamic vapor sorption was performed with an ADVENTURE series DVS at 25° C. under nitrogen blow. Approximately 20 milligrams of material was used. Samples were analyzed using method below: • 1. Ambient relative humidity to 95% RH at 10% RH (5% from 90% RH to 95% RH) • 2. 95% RH to 0% RH at 10% RH (5% RH from 95% RH to 90% RH) • 3. 0% RH to 95% RH at 10% RH (5% RH from 90% RH to 95% RH)
# To understand the hygroscopicity of Form A, dynamic vapor sorption (DVS) was employed to measure the mass change as a function of relative humidity at 25° C. Form A was equilibrated at ambient relative humidity before analysis.
smiles,measurement,setting,value
O=C([O-])c1nn[nH]c1Oc1ccc(-c2ccc(C3CC(F)(F)C3)cc2)cc1.[Na+],relative form stability,"[1]; THF/H2O, aw of 0~0.8, rt",more stable than monohydrate Form A and anhydrate Form D
"O.O=C([O-])c1nn[nH]c1Oc1ccc(-c2ccc(C3CC(F)(F)C3)cc2)cc1.[Na+] [Form A, sodium 5-((4′-(3,3-difluorocyclobutyl)-[1,1′-biphenyl]-4-yl)oxy)-1H-1,2,3-triazole-4-carboxylate monohydrate]",relative form stability,"[1]; water, aw of 1.0, rt",more stable than Form D
same,solubility,"[2]; 25~70° C., read-out: solubility as a function of temperature",1100 to 2300 µg/mL
same,solubility,"[2]; 25° C., 1~2 hrs, read-out: Solubility",1100 µg/mL
same,Final Form,[2]; 25° C.,Forms A + C
same,solubility,"[2]; 35° C., 1~2 hrs, read-out: Solubility",1300 µg/mL
same,solubility,"[2]; 50° C., 1~2 hrs, read-out: Solubility",1940 µg/mL
same,solubility,"[2]; 60° C., 1~2 hrs, read-out: Solubility",1860 µg/mL
same,Final Form,[2]; 60° C.,Forms A + C
same,solubility,"[2]; 70° C., 1~2 hrs, read-out: Solubility",2320 µg/mL
same,form transformation in water,[2]; various temperatures,partial conversion to Form C
same,solubility,[3]; 20% DMAc in water,3300 µg/mL
same,solubility,[3]; 20% EtOH in water,1900 µg/mL
same,solubility at 24 h,"[4]; pH 7.0 buffer, 25° C., read-out: Solubility",55 µg/mL
same,solubility at 24 h,"[4]; pH 8.0 buffer, 25° C., read-out: Solubility",404 µg/mL
same,solubility at 24 h,"[4]; pH 10.0 buffer, 25° C., read-out: Solubility",4830 µg/mL
same,solubility,"[4]; pH 2.0/4.0/6.0, 25° C.",limited solubility
same,Final pH (measured),"[4]; pH 2.0 buffer, 25° C.",pH 2.5
same,solubility,"[4]; pH 2.0 buffer, 25° C.",<LOD
same,Form Change,"[4]; pH 2.0 buffer, 25° C., XRPD of solids",Yes
same,Form Change,"[4]; pH 2.0~7.0, 25° C.",new diffractive peaks
same,Final pH (measured),"[4]; pH 4.0 buffer, 25° C.",pH 4.4
same,solubility,"[4]; pH 4.0 buffer, 25° C.",<LOD
same,Form Change,"[4]; pH 4.0 buffer, 25° C., XRPD of solids",Yes
same,Final pH (measured),"[4]; pH 6.0 buffer, 25° C.",pH 6.2
same,solubility,"[4]; pH 6.0 buffer, 25° C.",<LOD
same,Form Change,"[4]; pH 6.0 buffer, 25° C., XRPD of solids",Yes
same,Final pH (measured),"[4]; pH 7.0 buffer, 25° C.",pH 7.1
same,Form Change,"[4]; pH 7.0 buffer, 25° C., XRPD of solids",Yes
same,Form Change,"[4]; pH 8.0/10.0, 25° C.",no form change
same,Final pH (measured),"[4]; pH 8.0 buffer, 25° C.",pH 7.4
same,Form Change,"[4]; pH 8.0 buffer, 25° C., XRPD of solids",No
same,Final pH (measured),"[4]; pH 10.0 buffer, 25° C.",pH 8.4
same,Form Change,"[4]; pH 10.0 buffer, 25° C., XRPD of solids",No
same,solubility at 24 h,"[4]; ph buffer, pH 2.0~10.0, 25° C., read-out: solubility as a function of pH",< 4800 µg/mL
same,water uptake,[5]; 25° C./80% RH compared to starting point (60% RH),negligible water uptake
same,"weight gain, DVS cycle","[5]; 60% RH to 80% RH, 25° C.",less than 0.03%
same,"weight loss, first dynamic vapor desorption cycle","[5]; 80% RH to 60% RH, 25° C.",less than 0.03%
same,hygroscopicity,"[5]; DVS, 25° C., monohydrate",non-hygroscopic; also recorded: non-hygroscopicity
same,form stability under humidity,"[5]; broad humidity range, DVS 25° C.",good form stability
same,water lost,"[5]; relative humidity below 10% RH, 25° C.",~ 0.6%
